This passage reports SUMO results from patent US11578079B2, “SUMO inhibitor compounds and uses thereof” (CITY OF HOPE, priority 2018, dated 2023).

This assay has as its target T1, SUMO (Homo sapiens, UniProt Q9UBT2).
T1 sequence (Q9UBT2 1-640): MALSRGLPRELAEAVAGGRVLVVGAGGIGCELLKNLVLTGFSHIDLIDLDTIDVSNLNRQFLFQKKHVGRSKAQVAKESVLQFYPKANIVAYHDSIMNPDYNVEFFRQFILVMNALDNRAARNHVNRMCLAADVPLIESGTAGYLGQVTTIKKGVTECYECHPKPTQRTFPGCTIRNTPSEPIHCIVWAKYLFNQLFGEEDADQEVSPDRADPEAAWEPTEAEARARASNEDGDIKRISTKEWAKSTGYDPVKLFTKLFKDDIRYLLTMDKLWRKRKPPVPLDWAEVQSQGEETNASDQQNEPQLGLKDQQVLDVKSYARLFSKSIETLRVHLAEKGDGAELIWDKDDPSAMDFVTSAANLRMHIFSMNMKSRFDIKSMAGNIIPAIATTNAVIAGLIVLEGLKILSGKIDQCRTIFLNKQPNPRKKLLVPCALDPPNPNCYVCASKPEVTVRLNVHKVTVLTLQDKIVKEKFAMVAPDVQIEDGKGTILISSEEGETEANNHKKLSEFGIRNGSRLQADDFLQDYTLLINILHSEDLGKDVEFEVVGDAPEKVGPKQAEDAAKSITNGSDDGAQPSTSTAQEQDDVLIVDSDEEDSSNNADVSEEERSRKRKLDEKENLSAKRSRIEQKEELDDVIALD
T1 sequence (Q9UBE0 1-346 partner): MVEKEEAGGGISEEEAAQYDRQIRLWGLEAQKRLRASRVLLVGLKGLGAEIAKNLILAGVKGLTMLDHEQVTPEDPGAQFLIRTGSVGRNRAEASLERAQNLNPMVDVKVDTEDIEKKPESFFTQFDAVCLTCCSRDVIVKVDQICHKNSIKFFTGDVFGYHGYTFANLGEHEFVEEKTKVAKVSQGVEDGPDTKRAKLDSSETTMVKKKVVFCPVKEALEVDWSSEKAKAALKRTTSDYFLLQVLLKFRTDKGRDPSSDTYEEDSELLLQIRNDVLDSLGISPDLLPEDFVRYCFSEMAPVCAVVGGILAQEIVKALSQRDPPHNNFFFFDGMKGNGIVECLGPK
As to the kind of experiment: SUMO activity (Table I, biological activities). Format: biochemical. The arrangement: key: + (less active); ++ (active); +++ (most active).

`CCOc1ccc(CC(Nc2ccccc2)C23C=CC(O2)C(C(=O)OC)=C3C(=O)OC)cc1` (stereo not shown) [Compound 644]: the SUMO result is recorded as “++”.

With `CCOC(=O)C1=C(C(=O)OCC)C2(C(Nc3ccccc3)c3ccc(CN4CCOCC4)cc3)C=CC1O2` (stereo not shown) [Compound 659], the SUMO result was “++”.

On to `COC(=O)C1=C(C(=O)OC)C2(C(Cc3ccc(C4CC4)cc3)Nc3ccccc3)C=CC1O2` (stereo not shown) [Compound 693], for which the SUMO result is on record as “++”.

As for `COC(=O)C1=C(C(=O)OC)C2(C(Nc3ccccc3)c3ccc4ccccc4c3)C=CC1O2` (stereo not shown) [Compound 632], the SUMO result is reported as “+++”.

For the compound `COC(=O)C1=C(C(=O)OC)C2(C(Cc3ccc(C4CCOCC4)cc3)Nc3ccccc3)C=CC1O2` (stereo not shown) [Compound 681], the SUMO result is recorded as “++”.

As for `COC(=O)C1=C(C(=O)OC)C2(C(Cc3ccccc3Cl)Nc3ccccc3)CCC1O2` (stereo not shown) [Compound 689], the SUMO entry was “+”.

As to `COC(=O)C1=C(C(=O)Nc2ccc(C)c(F)c2)C2C=CC1(C1OCCO1)O2` (stereo not shown) [Compound 485], the SUMO entry is “+”.

For `COC(=O)C1=C(C(=O)NCCO)C2C=CC1(C(Cc1ccccc1)Nc1ccccc1)O2` (stereo not shown) [Compound 152], the SUMO entry was “++”.

In the case of `COC(=O)C1=C(C(=O)OC)C2(C(Cc3ccccc3)Nc3ccccc3)CC(O)C1O2` (stereo not shown) [Compound 302], the SUMO entry is “++”.

As for `COC(=O)C1=C(C(=O)NC(C)C)C2C=CC1(C(Cc1ccccc1)Nc1ccccc1)O2` (stereo not shown) [Compound 153], the SUMO result was “++”.

As to `COC(=O)C1=C(C(=O)OC)C2(C(Cc3ccccc3)N(C)c3ccccc3)C=CC1O2` (stereo not shown) [Compound 236], the SUMO result is “++”.

As for `COC(=O)C1=C(C(=O)NC2CCN(C)CC2)C2(C)C=CC1(C(Cc1ccccc1)Nc1ccccc1)O2` (stereo not shown) [Compound 268], the SUMO entry is “+”.

`COC(=O)C1=C(C(=O)OC)C2(C(Cc3ccc(NC(C)C)cc3)Nc3ccccc3)C=CC1O2` (stereo not shown) [Compound 684]: the SUMO result was “+”.

As to `COC(=O)C1=C(C(=O)NCCN(C)C)C2CCC1(C(Cc1ccccc1Cl)Nc1ccccc1)O2` (stereo not shown) [Compound 691], the SUMO result is given as “++”.

As to `COC(=O)C1=C(C(=O)OC)C2(C(Cc3ccccc3)Oc3cccc(CO)c3)C=CC1O2` (stereo not shown) [Compound 520], the SUMO entry is listed as “++”.

Regarding `COC(=O)C1=C(C(=O)NCCN(C)C)C2C=CC1(C(Cc1ccccc1Cl)Nc1ccc(F)cc1)O2` (stereo not shown) [Compound 688], the SUMO result is listed as “+++”.

With `CCOc1cccc(NC(Cc2ccccc2)C23C=CC(O2)C(C(=O)OC)=C3C(=O)OC)c1` (stereo not shown) [Compound 669], the SUMO result was “++”.

As to `COC(=O)C1=C(C(=O)OC)C2(C(Cc3ccc(C#N)cc3)Nc3ccccc3)C=CC1O2` (stereo not shown) [Compound 643], the SUMO entry is reported as “++”.

Turning to `COC(=O)C1=C(C(=O)OC)C2(C(Cc3ccccc3)Oc3cccnc3)C=CC1O2` (stereo not shown) [Compound 482], the SUMO result was “+”.

Take `CCC12C=CC(C(Cc3ccccc3)Nc3ccccc3)(O1)C(C(=O)OC)=C2C(=O)OC` (stereo not shown) [Compound 629]: the SUMO entry was “++”.

With `COC(=O)C1=C(C(=O)NCCCCCNC(=O)OCC2c3ccccc3-c3ccccc32)C2C=CC1(C(Cc1ccccc1)Nc1cc(F)cc(F)c1)O2` (stereo not shown) [Compound 244], the SUMO entry is reported as “+”.

For `COC(=O)C1=C(C(=O)Nc2ccc(C)c(F)c2)C2C=CC1(C(Cc1ccccc1)Oc1ccccc1)O2` (stereo not shown) [Compound 347], the SUMO entry is reported as “++”.

As for `COC(=O)C1=CC2(C(Cc3ccccc3)N(C)c3ccccc3)C=CC1O2` (stereo not shown) [Compound 284], the SUMO result is recorded as “++”.

With `COC(=O)C1=C(C(=O)NC2CCN(C(=O)OC(C)(C)C)CC2)C2C=CC1(C(Cc1ccccc1)Nc1ccccc1)O2` (stereo not shown) [Compound 198], the SUMO entry is reported as “+”.

In the case of `COC(=O)C1=C(C(=O)OC2CCN(C)CC2)C2C=CC1(C(Cc1ccccc1)Nc1ccccc1)O2` (stereo not shown) [Compound 286], the SUMO result was “++”.

In the case of `COC(=O)C1=C(C(=O)OC)C2(C(Cc3cccc(-c4ccccc4)c3)Nc3ccccc3)C=CC1O2` (stereo not shown) [Compound 682], the SUMO entry was “+”.

In the case of `COC(=O)C1=C(C(=O)Nc2ccc(OC)cc2)C2C=CC1(C(Cc1ccccc1)Nc1ccccc1)O2` (stereo not shown) [Compound 194], the SUMO result was “++”.

`CCNC(=O)C1=C(C(=O)NCC)C2(C(Cc3ccccc3Cl)Nc3ccccc3)C=CC1O2` (stereo not shown) [Compound 662]: the SUMO entry is recorded as “+”.

As for `COC(=O)C1=C(C(=O)O)C2C=CC1(C(Cc1ccccc1)Nc1cc(F)cc(F)c1)O2` (stereo not shown) [Compound 203], the SUMO result is “++”.

Consider `COc1ccc(NC(=O)C2=C(C(=O)O)C3(C(Cc4ccccc4)Nc4ccccc4)C=CC2O3)cc1` (stereo not shown) [Compound 175], for which the SUMO entry is “+”.

Take `COC(=O)C1=C(C(N)=O)C2C=CC1(C(Cc1ccccc1)Nc1cc(F)cc(F)c1)O2` (stereo not shown) [Compound 207]: the SUMO result is listed as “+”.

For the compound `CNC(=O)C1=C(C(=O)OC)C2(C(Cc3ccccc3)Nc3ccccc3)C=CC1(C)O2` (stereo not shown) [Compound 293], the SUMO result is on record as “++”.

On to `COC(=O)C1=C(C(=O)OC)C2(C(Cc3ccc(Cl)cc3Cl)Nc3ccccc3)C=CC1O2` (stereo not shown) [Compound 641], for which the SUMO result was “+++”.

As for `C=CCC(Nc1ccccc1)C12C=CC(O1)C(C(=O)OC)=C2C(=O)OC` (stereo not shown) [Compound 407], the SUMO entry is “++”.

In the case of `COC(=O)C1=C(C(=O)OC)C2(C(Cc3ccccc3Cl)Oc3ccccc3)C=CC1O2` (stereo not shown) [Compound 687], the SUMO result is listed as “+”.

Turning to `CC(C)NC(=O)C1=C(C(=O)NC(C)C)C2(C(Cc3ccccc3)Nc3ccccc3)C=CC1O2` (stereo not shown) [Compound 159], the SUMO entry is reported as “+”.

As for `COC(=O)C1=C(C(=O)NCCNC(=O)OC(C)(C)C)C2C=CC1(C(Cc1ccccc1)Nc1ccc(F)cc1)O2` (stereo not shown) [Compound 539], the SUMO entry was “++”.

Take `COC(=O)C1=C(C(=O)OC)C2(C(Cc3ccccc3C#N)Nc3ccccc3)C=CC1O2` (stereo not shown) [Compound 660]: the SUMO entry is recorded as “++”.

Take `CNc1ccc(CC(Nc2ccccc2)C23C=CC(O2)C(C(=O)OC)=C3C(=O)OC)cc1` (stereo not shown) [Compound 685]: the SUMO result is given as “++”.

For `COC(=O)C1=C(C(=O)OC)C2(C(Cc3ccccc3)Nc3ccccc3)C=CC1(c1ccccc1)O2` (stereo not shown) [Compound 696], the SUMO result is recorded as “+”.

Consider `COC(=O)C1=C(C(=O)N(C)C)C2C=CC1(C(Cc1ccccc1)Nc1ccccc1)O2` (stereo not shown) [Compound 154], for which the SUMO entry is recorded as “+”.

Turning to `COC(=O)C1=C(C(=O)OC)C2(C(Cc3ccc(Nc4ccccc4)cc3)Nc3ccccc3)C=CC1O2` (stereo not shown) [Compound 683], the SUMO entry is “+”.

As for `CCCNC(=O)C1=C(C(=O)OC)C2(C(Cc3ccccc3)Nc3ccccc3)C=CC1O2` (stereo not shown) [Compound 150], the SUMO result is “++”.

Turning to `COC(=O)C1=C(C(=O)OC)C2(C(Nc3ccccc3)c3ccc4ccc(OC)cc4c3)C=CC1O2` (stereo not shown) [Compound 654], the SUMO result is reported as “++”.

With `COC(=O)C1=C(C(=O)OC)C2(C(Oc3ccccc3)c3ccc(CN4CCOCC4)cc3)C=CC1O2` (stereo not shown) [Compound 495], the SUMO result is “++”.

For the compound `COC(=O)C1=C(C(=O)OC)C2(C(Cc3cccc4ccccc34)Nc3ccccc3)C=CC1O2` (stereo not shown) [Compound 635], the SUMO entry is on record as “++”.

As for `COC(=O)C1=C(C(=O)OC)C2(C(Cc3ccccc3Br)Nc3ccccc3)C=CC1O2` (stereo not shown) [Compound 667], the SUMO entry was “++”.

Consider `COC(=O)C1=C(C(=O)OC)C2(C(Cc3ccc(F)cc3)Nc3cc(F)cc(Cl)c3)C=CC1O2` (stereo not shown) [Compound 451], for which the SUMO entry is “+++”.

For `COC(=O)C1=C(C(=O)OC)C2(C(Cc3ccc(OCC(C)C)cc3)Nc3ccccc3)C=CC1O2` (stereo not shown) [Compound 651], the SUMO entry is “++”.

For `COC(=O)C1=C(C(=O)OC)C2(C(Cc3ccccc3)Nc3ccccc3)C=CC1(C)O2` (stereo not shown) [Compound 259], the SUMO result is “++”.

Consider `CCOC(=O)C1=C(C(=O)OCC)C2(C(Cc3ccccc3)Nc3ccccc3)C=CC1(CO)O2` (stereo not shown) [Compound 265], for which the SUMO result was “++”.

For the compound `CCCCC(Nc1cc(F)cc(F)c1)C12C=CC(O1)C(C(=O)NCCN(C)C)=C2C(=O)OC` (stereo not shown) [Compound 397], the SUMO entry is reported as “+”.

In the case of `CCOC(=O)C1=C(C(=O)OCC)C2(C(Cc3ccccc3)Nc3ccccc3)C=CC1O2` (stereo not shown) [Compound 232], the SUMO entry was “+++”.

Regarding `CNC(=O)Cc1ccc(CC(Nc2ccccc2)C23C=CC(O2)C(C(=O)OC)=C3C(=O)OC)cc1` (stereo not shown) [Compound 665], the SUMO result was “++”.

With `COC(=O)C1=C(C(=O)OC)C2(C(Cc3ccc(Cl)nc3)Nc3ccccc3)C=CC1O2` (stereo not shown) [Compound 649], the SUMO result is on record as “++”.

Consider `COC(=O)C1=C(C(=O)OC)C2(C(CCCN3CCOCC3)Nc3ccccc3)C=CC1O2` (stereo not shown) [Compound 193], for which the SUMO result is recorded as “+”.

As for `COC(=O)C1=C(C(=O)OC)C2(C(Cc3ccccc3)Nc3c(F)cccc3F)C=CC1O2` (stereo not shown) [Compound 228], the SUMO entry is recorded as “++”.

Take `COC(=O)C1=C(C(=O)Nc2ccc(OC(F)(F)F)cc2)C2C=CC1(C(Cc1ccccc1)Nc1ccccc1)O2` (stereo not shown) [Compound 196]: the SUMO result is listed as “+”.
